This is an account of results in patent US20260347387A1, “Lipid-Gold Salt Molecules and Formulation in Lipid Nanoparticle Delivery Systems” (NORTHWESTERN UNIVERSITY, priority 2023, published 2026).

Structures are written as SMILES.

This assay concerns TOV-21G ovarian cancer cells. In words: Cell viability assay, TOV-21G clear cell ovarian cancer cells. It is filed as cell-based. Particulars: Table C, FIGS. 24, 25. The procedure:
In vitro cellular viability assay. ES-2 (2,500 cells/well), 786-0 ccRCCa (400 cells/well), Ramos (16,000 cells/well), SUDHL4 (16,000 cells/well), Jurkat (16,000 cells/well), CWR-R1 (1,000 cells/well), LNCaP (2,000 cells/well), and 22rv1 (2,000 cells/well) were plated into 96 well plates. Adherent ES-2, CWR-R1, LNCaP, 22rv1, and 786-0 cells were incubated for 24 h. Media in the wells was then replaced with pre-prepared media containing the appropriate drug formulations at the appropriate drug concentration. Ramos, SUDHL4, and Jurkat cells are suspension cell lines and were plated and treated on the same day. After 72 h, cell viability was measured via an MTS cell-proliferation assay (CellTiter 96 Aqueous One, Promega; Madison, WI) and the relative cell-survival percentages compared to the vehicle control were plotted against the concentration of either the AuNP or the oc-HDL NPs in logarithmic scale. The data reported represent an average of three measurements.
Addition of gold salts to HDL-NPs disclosed herein decreased cell viability more than the addition of gold salts to oc-HDL NPs disclosed herein in a clear cell ovarian cancer model (TOV-21Gcell line). Cells were treated with gold-bearing HDL-NPs or gold salts as disclosed herein in an assay described in the Materials and protocols for in vitro studies section above.

In turn, `CCP(CC)CC.[Au+].[Cl-]` [Et3PAuCl, Chloro(triethylphosphine)gold(I)] showed an IC50 of 9.74 nM.

For orientation: IC50 means the concentration that gives 50% inhibition. Higher therefore signals a need for much substance.
